Data as given in ChEMBL document CHEMBL1201862, “PubChem BioAssay data set” (2004).
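Step 1: Grow cells in 96-well plates. Step 2: Expose to compound for 48 hours at 5 concentrations. Step 3: Interpolate endpoints linearly; if unreached, use highest concentration. Abbreviation: GI50, concentration required for 50% inhibition of growth.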 The source made the active and inactive calls. Rule as the data show it: active = GI50 up to about 1.1 µM and inactive = higher.

Columns and labels:
Experiment in all cases: NCI-60 cell line screen, 48 h
[1] = system: COLO 205
[2] = system: HCC 2998
[3] = system: HT-29
[4] = system: IGROV-1
[5] = system: K562
[6] = system: LOX IMVI
[7] = system: MOLT-4
[8] = system: NCI-H460
[9] = system: NCI/ADR-RES
[10] = system: OVCAR-4
[11] = system: OVCAR-5
[12] = system: PC-3
[13] = system: RPMI-8226
[14] = system: RXF 393
[15] = system: SK-MEL-5
[16] = system: SN12C
[17] = system: SNB-19
[18] = system: SW-620
[19] = system: T47D
[20] = system: UO-31

Compound	GI50 [1]	GI50 [2]	GI50 [3]	GI50 [4]	GI50 [5]	GI50 [6]	GI50 [7]	GI50 [8]	GI50 [9]	GI50 [10]	GI50 [11]	GI50 [12]	GI50 [13]	GI50 [14]	GI50 [15]	GI50 [16]	GI50 [17]	GI50 [18]	GI50 [19]	GI50 [20]
N#CC[N+]1(Cc2ccccn2)CCCC1.O=S(=O)([O-])c1ccccc1	> 100 µM (inactive)	> 100 µM (inactive)	> 100 µM (inactive)	> 100 µM (inactive)	> 100 µM (inactive)	> 100 µM (inactive)	7.01 µM (inactive)	> 100 µM (inactive)	> 100 µM (inactive)	> 100 µM (inactive)	> 100 µM (inactive)	> 100 µM (inactive)	> 100 µM (inactive)	> 100 µM (inactive)	> 100 µM (inactive)	> 100 µM (inactive)	> 100 µM (inactive)	> 100 µM (inactive)	> 100 µM (inactive)	> 100 µM (inactive)
COC(=O)CCCCC/C(=C\C(=O)C(Cl)(Cl)Cl)OC	26.5 µM (inactive)	15.9 µM (inactive)	30.5 µM (inactive)	12.7 µM (inactive)	26.8 µM (inactive)	20.9 µM (inactive)	16.7 µM (inactive)	28.3 µM (inactive)	30.5 µM (inactive)	19.5 µM (inactive)	> 100 µM (inactive)	27.8 µM (inactive)	20.4 µM (inactive)	16.7 µM (inactive)	38.8 µM (inactive)	33.5 µM (inactive)	48.2 µM (inactive)	31.7 µM (inactive)	28.5 µM (inactive)	84.5 µM (inactive)
CCCCCCCc1c(Cl)nc(Cl)nc1Cl	5.25 µM (inactive)	5.81 µM (inactive)	4.04 µM (inactive)	2.29 µM (inactive)	2.06 µM (inactive)	1.45 µM (inactive)	1.15 µM (inactive)	12.8 µM (inactive)	4.26 µM (inactive)	2.87 µM (inactive)	8.85 µM (inactive)	8.28 µM (inactive)	2.84 µM (inactive)	2.47 µM (inactive)	4.31 µM (inactive)	2.05 µM (inactive)	11.2 µM (inactive)	2.68 µM (inactive)	12.2 µM (inactive)	5.82 µM (inactive)
Nc1cccc(/C=C/CN2CCN(CCOC(c3ccccc3)c3ccccc3)CC2)c1	6.03 µM (inactive)	3.52 µM (inactive)	3.15 µM (inactive)	16.3 µM (inactive)	3.11 µM (inactive)	15.6 µM (inactive)	3.54 µM (inactive)	13.6 µM (inactive)	14.3 µM (inactive)	13.2 µM (inactive)	16 µM (inactive)	14.8 µM (inactive)	3 µM (inactive)	12.3 µM (inactive)	12.6 µM (inactive)	16.8 µM (inactive)	15.7 µM (inactive)	15.9 µM (inactive)	8 µM (inactive)	13.6 µM (inactive)
Cc1ncc(CO)c(CN)c1O	> 100 µM (inactive)	> 100 µM (inactive)	> 100 µM (inactive)	> 100 µM (inactive)	> 100 µM (inactive)	> 100 µM (inactive)	> 100 µM (inactive)	> 100 µM (inactive)	> 100 µM (inactive)	> 100 µM (inactive)	> 100 µM (inactive)	> 100 µM (inactive)	> 100 µM (inactive)	> 100 µM (inactive)	> 100 µM (inactive)	> 100 µM (inactive)	> 100 µM (inactive)	> 100 µM (inactive)	> 100 µM (inactive)	> 100 µM (inactive)
COc1cc2c(cc1OC)C(SC)C(=O)N(Cc1cccc(OC)c1OC)CC2 (stereo not given)	2.74 µM (inactive)	2.46 µM (inactive)	1.03 µM (active)	2.77 µM (inactive)	0.501 µM (active)	2.1 µM (inactive)	2.33 µM (inactive)	1.09 µM (active)	2.73 µM (inactive)	17.5 µM (inactive)	14.9 µM (inactive)	1.28 µM (inactive)	3.61 µM (inactive)	1.79 µM (inactive)	0.703 µM (active)	5.61 µM (inactive)	8.75 µM (inactive)	1.49 µM (inactive)	4.13 µM (inactive)	6.47 µM (inactive)
O=c1[nH]nc(Cc2ccc(Cl)cc2)n1O	> 100 µM (inactive)	> 100 µM (inactive)	> 100 µM (inactive)	> 100 µM (inactive)	> 100 µM (inactive)	> 100 µM (inactive)	> 100 µM (inactive)	> 100 µM (inactive)	> 100 µM (inactive)	> 100 µM (inactive)	> 100 µM (inactive)	> 100 µM (inactive)	> 100 µM (inactive)	> 100 µM (inactive)	> 100 µM (inactive)	> 100 µM (inactive)	> 100 µM (inactive)	> 100 µM (inactive)	> 100 µM (inactive)	> 100 µM (inactive)
Nc1nc(Cl)c(N)c(NCC2(CO)CC(O)C2)n1 (stereo not given)	> 100 µM (inactive)	46.3 µM (inactive)	> 100 µM (inactive)	> 100 µM (inactive)	> 100 µM (inactive)	> 100 µM (inactive)	> 100 µM (inactive)	> 100 µM (inactive)	> 100 µM (inactive)	> 100 µM (inactive)	> 100 µM (inactive)	> 100 µM (inactive)	> 100 µM (inactive)	> 100 µM (inactive)	> 100 µM (inactive)	> 100 µM (inactive)	> 100 µM (inactive)	> 100 µM (inactive)	> 100 µM (inactive)	> 100 µM (inactive)
C/C(=C/CNc1ncnc2c1ncn2CCC#N)CO	> 100 µM (inactive)	> 100 µM (inactive)	> 100 µM (inactive)	> 100 µM (inactive)	> 100 µM (inactive)	> 100 µM (inactive)	> 100 µM (inactive)	> 100 µM (inactive)	> 100 µM (inactive)	> 100 µM (inactive)	> 100 µM (inactive)	> 100 µM (inactive)	> 100 µM (inactive)	> 100 µM (inactive)	> 100 µM (inactive)	> 100 µM (inactive)	> 100 µM (inactive)	> 100 µM (inactive)	> 100 µM (inactive)	> 100 µM (inactive)
O=c1c2ncn(C3CCCCO3)c2n(-c2ccccc2)c(=S)n1-c1ccccc1 (stereo not given)	> 71.4 µM (inactive)	> 70 µM (inactive)	> 76.4 µM (inactive)	28.6 µM (inactive)	> 68.7 µM (inactive)	56.5 µM (inactive)	> 100 µM (inactive)	> 54.8 µM (inactive)	30.1 µM (inactive)	40.4 µM (inactive)	> 61.1 µM (inactive)	80.4 µM (inactive)	> 52.7 µM (inactive)	7.8 µM (inactive)	> 74.3 µM (inactive)	56.6 µM (inactive)	21.5 µM (inactive)	> 65.9 µM (inactive)	2.31 µM (inactive)	35.1 µM (inactive)
[O-]c1c[n+](CCCC[n+]2cc([O-])on2)no1	> 100 µM (inactive)	> 100 µM (inactive)	> 100 µM (inactive)	> 100 µM (inactive)	> 100 µM (inactive)	> 100 µM (inactive)	22.8 µM (inactive)	> 100 µM (inactive)	> 100 µM (inactive)	> 100 µM (inactive)	> 100 µM (inactive)	> 100 µM (inactive)	> 100 µM (inactive)	> 100 µM (inactive)	> 100 µM (inactive)	> 100 µM (inactive)	> 100 µM (inactive)	> 100 µM (inactive)	> 100 µM (inactive)	> 100 µM (inactive)
COC(=O)/C=C\C(C#N)(C#N)/N=C/c1ccc(C)s1	1.43 µM (inactive)	17.7 µM (inactive)	1.51 µM (inactive)	2 µM (inactive)	0.998 µM (active)	1.67 µM (inactive)	0.955 µM (active)	19.3 µM (inactive)	5.92 µM (inactive)	3.78 µM (inactive)	6.53 µM (inactive)	2.63 µM (inactive)	1.9 µM (inactive)	1.46 µM (inactive)	6.92 µM (inactive)	2.29 µM (inactive)	18.7 µM (inactive)	0.668 µM (active)	1.58 µM (inactive)	1.67 µM (inactive)
Cc1nc2ccc(S(=O)(=O)Nc3ccccn3)cc2c(=O)n1NS(=O)(=O)c1ccccn1	> 100 µM (inactive)	> 100 µM (inactive)	> 100 µM (inactive)	> 100 µM (inactive)	> 100 µM (inactive)	> 100 µM (inactive)	> 100 µM (inactive)	> 100 µM (inactive)	> 100 µM (inactive)	> 100 µM (inactive)	> 100 µM (inactive)	> 100 µM (inactive)	> 100 µM (inactive)	> 100 µM (inactive)	> 100 µM (inactive)	> 100 µM (inactive)	> 100 µM (inactive)	> 100 µM (inactive)	> 100 µM (inactive)	> 100 µM (inactive)
C=C[C@@]1(C)CC2CC[C@]3(C)C(C)=CC(=O)CC3[C@]2(C)CC1O (stereo not given in full)	94.4 µM (inactive)	> 100 µM (inactive)	> 100 µM (inactive)	> 100 µM (inactive)	38 µM (inactive)	> 100 µM (inactive)	83.2 µM (inactive)	> 100 µM (inactive)	> 100 µM (inactive)	> 100 µM (inactive)	> 100 µM (inactive)	> 100 µM (inactive)	> 100 µM (inactive)	> 100 µM (inactive)	> 100 µM (inactive)	> 100 µM (inactive)	> 100 µM (inactive)	> 100 µM (inactive)	> 100 µM (inactive)	> 100 µM (inactive)
